# Source: patent publication US20070059704A1, “Detection system” (priority 2003, published 2007)
# Tested on: J3130
# Experiment: Bioassay: induction of growth of drug-dependent femX null mutant J3130 by antibiotics applied on paper discs
# Assay type: cell-based, Streptomyces coelicolor
# Settings: for induction of growth of J3130 around the paper disc: paper disc on MMT medium spread with J3130 spores, result in words
# Excerpt: To see if growth of J3130 could be induced by control antibiotics known to target the cell envelope, spores of J3130 were spread on MMT medium (Kieser et al, 2000) and potential inducers were applied on paper discs to the freshly spread plates. […] None of the other antibiotics tested, including many cell wall-specific non-glycopeptide antibiotics, induced growth of J3130.
# In order to perform the assay of the invention, spores of J3130 are spread on MMT medium at concentration of approximately 5×10^6/12 cm^2 plate. Test compound is applied on paper discs to a number of freshly spread plates in parallel using a different concentration of the test compound in each plate.
Compound,induction of growth of J3130 around the paper disc,"amount that gives a positive reaction in the bioassay (initial assessment of sensitivity) (J3130 bioassay, two-fold dilution series) [ng]"
N[C@H]1C(=O)N[C@@H]2Cc3ccc(c(Cl)c3)Oc3cc4cc(c3O)Oc3ccc(cc3Cl)[C@@H](O)[C@@H]3NC(=O)[C@H](NC(=O)[C@@H]4NC(=O)[C@@H](NC2=O)c2cc(O)cc(c2)Oc2cc1ccc2OS(=O)(=O)O)c1cc(Cl)c(O)c(c1)-c1c(O)cc(O)cc1[C@@H](C(=O)O)NC3=O [A47934],induced a halo of growth,–
CN[C@H](CC(C)C)C(=O)N[C@H]1C(=O)N[C@@H](CC(N)=O)C(=O)N[C@H]2C(=O)N[C@H]3C(=O)N[C@H](C(=O)N[C@H](C(=O)O)c4cc(O)cc(O)c4-c4cc3ccc4O)[C@H](O)c3ccc(c(Cl)c3)Oc3cc2cc(c3O[C@@H]2O[C@H](CO)[C@@H](O)[C@H](O)[C@H]2O[C@H]2C[C@](C)(N)[C@H](O)[C@H](C)O2)Oc2ccc(cc2Cl)[C@H]1O [Vancomycin],induced a halo of growth,80
Ristocetin,induced a halo of growth,–
CN[C@H](CC(C)C)C(=O)N[C@H]1C(=O)N[C@@H](CC(N)=O)C(=O)N[C@H]2C(=O)N[C@H]3C(=O)N[C@H](C(=O)N[C@H](C(=O)O)c4cc(O)cc(O)c4-c4cc3ccc4O)[C@H](O[C@H]3C[C@](C)(N)[C@@H](O)[C@H](C)O3)c3ccc(c(Cl)c3)Oc3cc2cc(c3O[C@@H]2O[C@H](CO)[C@@H](O)[C@H](O)[C@H]2O[C@H]2C[C@](C)(N)[C@@H](O)[C@H](C)O2)Oc2ccc(cc2Cl)[C@H]1O [Chloroeremomycin],induced a halo of growth,–
